# Data published in patent US6683103B2, “Sulfonamides for treatment of endothelin-mediated disorders” (Texas Biotechnology Corporation, priority 1997, dated 2004).
# Read-outs that look alike come from different tables or passages of the source.
# How the values were obtained:
# human ETB receptor = biological target: T1, human ETB receptor (Homo sapiens, UniProt P24530); assay: Binding Test #2: inhibition of 125I-ET-1 binding to ETB receptors (transfected COS7 cell membranes)
# T1 construct: expressed in transfected cells; host or cells: COS7 cells
# T1 sequence (P24530 27-442): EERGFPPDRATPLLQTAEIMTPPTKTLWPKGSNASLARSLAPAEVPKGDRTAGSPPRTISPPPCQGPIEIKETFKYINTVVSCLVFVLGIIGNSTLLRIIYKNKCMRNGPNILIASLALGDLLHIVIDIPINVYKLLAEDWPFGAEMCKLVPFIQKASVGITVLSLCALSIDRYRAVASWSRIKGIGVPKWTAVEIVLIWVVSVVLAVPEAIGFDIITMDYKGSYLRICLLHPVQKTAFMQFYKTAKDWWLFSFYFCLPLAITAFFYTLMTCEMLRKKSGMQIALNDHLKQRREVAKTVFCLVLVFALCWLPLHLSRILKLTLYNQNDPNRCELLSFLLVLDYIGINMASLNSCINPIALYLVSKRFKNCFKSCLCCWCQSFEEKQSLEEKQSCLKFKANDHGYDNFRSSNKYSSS
# Description: (§1) Compounds that are potential endothelin antagonists are identified by testing their ability to compete with ^125I-labeled ET-1 for binding to human ETA receptors or ETB receptors present on isolated cell membranes. The effectiveness of the test compound as an antagonist or agonist of the biological tissue response of endothelin can also be assessed by measuring the effect on endothelin induced contraction of isolated rat thoracic aortic rings. The ability of the compounds to act as antagonists or agonists for ETB receptors can be assess by testing the ability of the compounds are to inhibit endothelin-1 induced prostacyclin release from cultured bovine aortic endothelial cells.
# B. Endothelin Binding Inhibition—Binding Test #2: Inhibition of Binding to ETB Receptors
# COS7 cells were transfected with DNA encoding the ETB receptor, The resulting cells, which express the human ETB receptor, were grown to confluence in T-150 flasks. Membrane was prepared as described above. The binding assay was performed as described above using the membrane preparation diluted with binding buffer to a concentration of 1 μg/50 μl.
# Briefly, the COS7 cells, described above, that had been transfected with DNA encoding the ETB receptor and express the human ETB receptor on their surfaces were grown to confluence in T-1 75 flasks. Cells from multiple flasks were collected by scraping, pooled and centrifuged for 10 min at 190×g. The cells were resuspended in phosphate buffered saline (PBS) containing 10 mM EDTA using a Tenbroeck homogenizer. The suspension was centrifuged at 4° C. 57,800 X g for 15 min, the pellet was resuspended in 5 ml of buffer A (5mM HEPES buffer, pH 7.4 containing aprotinin (100 KIU/ml)) and then frozen and thawed once. Five ml of Buffer B (5 mM HEPES Buffer, pH 7.4 containing 10 mM MnCl2 and 0.001% deoxyribonuclease Type 1) was added, the suspension mixed by inversion and then incubated at 37° C. for 30 minutes. The mixture was centrifuged at 57,800×g as described above, the pellet washed twice with buffer A and then resuspended in buffer C (30 mM HEPES buffer, pH 7.4 containing aprotinin (100 KIU/ml) to give a final protein concentration of 2 mg/ml.
# The binding assay was performed as described above using the membrane preparation diluted to give 1 μg/50 μl of binding buffer.
# human ETA receptors = biological target: T2, human ETA receptors (Homo sapiens, UniProt P25101); assay: Binding Test #1: inhibition of 125I-ET-1 binding to ETA receptors (TE 671 cell membranes); conditions: read-out: ETA
# T2 construct: endogenous in cells; host or cells: TE 671 cells (ATCC HTB 139)
# T2 sequence (P25101 21-427): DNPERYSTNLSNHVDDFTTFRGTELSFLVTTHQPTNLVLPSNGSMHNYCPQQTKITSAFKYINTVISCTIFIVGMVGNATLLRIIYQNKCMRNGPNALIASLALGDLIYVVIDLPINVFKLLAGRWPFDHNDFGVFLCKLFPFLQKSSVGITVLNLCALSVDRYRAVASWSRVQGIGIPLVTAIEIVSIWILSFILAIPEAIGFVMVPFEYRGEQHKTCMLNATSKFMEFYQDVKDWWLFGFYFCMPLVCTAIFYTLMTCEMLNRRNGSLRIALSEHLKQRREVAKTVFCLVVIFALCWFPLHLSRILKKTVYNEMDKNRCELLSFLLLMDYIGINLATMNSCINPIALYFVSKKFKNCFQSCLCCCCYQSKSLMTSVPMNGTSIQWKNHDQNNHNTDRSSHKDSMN
# Description: as §1
# A. Endothelin Binding Inhibition—Binding Test #1: Inhibition of Binding to ETA Receptors
# TE 671 cells (ATCC Accession No. HTB 139) express ETA receptors. These cells were grown to confluence in T-175 flasks. Cells from multiple flasks were collected by scraping, pooled and centrifuged for 10 min at 190×g. The cells were resuspended in phosphate buffered saline (PBS) containing 10 mM EDTA using a Tenbroeck homogenizer. The suspension was centrifuged at 4° C. at 57,800×g for 15 min, the pellet was resuspended in 5 ml of buffer A (5 mM HEPES buffer, pH 7.4 containing aprotinin (100 KIU/ml)) and then frozen and thawed once. 5 ml of Buffer B (5 mM HEPES Buffer, pH 7.4 containing 10 mM MnCl2 and 0.001% deoxyribonuclease Type 1) was added, the suspension mixed by inversion and then incubated at 37° C. for 30 minutes. The mixture was centrifuged at 57,800×g as described above, the pellet washed twice with buffer A and then resuspended in buffer C (30 mM HEPES buffer, pH 7.4 containing aprotinin (100 KIU/ml) to give a final protein concentration of 2 mg/ml and stored at −70° C. until use.
# The membrane suspension was diluted with binding buffer (30 mM HEPES buffer, pH 7.4 containing 150 mM NaCl, 5mM MgCl2, 0.5% Bacitracin) to a concentration of 8 μg/50 μl. ^125I-endothelin-1 (3,000 cpm, […]) was added to 50 μL of either: (A) endothelin-1 (for non specific binding) to give a final concentration 80 nM); (B) binding buffer (for total binding); or (C) a test compound (final concentration 1 nM to 100 μM). The membrane suspension (50 μL), containing up to 8 μg of membrane protein, was added to each of (A), (B), or (C). Mixtures were shaken, and incubated at 4° C. for 16-18 hours, and then centrifuged at […] for 25 min at 2,500×g. Alternatively, the incubation was conducted at 24° C. […] This, must be kept in mind when comparing IC50 concentrations among compounds provided herein.
# The supernatant, containing unbound radioactivity, was decanted and the pellet counted on a Genesys multiwell gamma counter. The degree of inhibition of binding (D) was calculated according to the following equation: [formula]
# Each test was generally performed in triplicate.
# [1] = Table 2, incubation at 4° C., read-out: ETB
# [2] = Table 1, incubation at 4° C., read-out: ETB
Compound,IC50 (human ETB receptor; [2]),"IC50 (human ETA receptors; Table 1, incubation at 4° C.)",also measured
"Cc1noc(NS(=O)(=O)c2cccc(-c3ccccc3)c2)c1C [N-(3,4-dimethyl-5-isoxazolyl)-3-biphenylsulfonamide]",–,–,"IC50 (human ETB receptor; [1]): 3480 nM; IC50 (human ETB receptor; read-out: IC50 for ETB receptors): ~3480 nM; IC50 (human ETA receptors; Table 2, incubation at 4° C.): > 30 nM"
"COc1ccsc1S(=O)(=O)Nc1onc(C)c1C [N-(3,4-dimethyl-5-isoxazolyl)-3-methoxythiophene-2-sulfonamide]",45500 nM,2500 nM,–
"Cc1noc(NS(=O)(=O)c2ccc(-c3ccccc3)cc2)c1C [N-(3,4-dimethyl-5-isoxazolyl)-4-biphenylsufonamide]",–,–,"IC50 (human ETB receptor; [1]): 770 ± 320 nM; IC50 (human ETB receptor; Table 2, † incubation at 24° C., read-out: ETB): 150 nM; IC50 (human ETA receptors; Table 2, incubation at 4° C.): 9900 ± 1400 nM; IC50 (human ETA receptors; Table 2, † incubation at 24° C.): 6300 nM"
"Cc1noc(NS(=O)(=O)c2cc3ccccc3s2)c1C [N-(3,4-dimethyl-5-isoxazolyl)benzo[b]thiophene-2-sulfonamide]",11100 nM,7220 nM,–
"Cc1noc(NS(=O)(=O)c2cc3ccccc3o2)c1C [N-(3,4-dimethyl-5-isoxazolyl)benzofuran-2-sulfonamide]",38400 nM,5220 nM,–
"Cc1noc(NS(=O)(=O)c2ccc(-c3ccccc3)s2)c1C [N-(3,4-dimethyl-5-isoxazolyl-5-phenylthiophen-2-sulfonamide]",1290 nM,2550 nM,–
Cc1noc(NS(=O)(=O)c2ccn(-c3ccc(C(C)C)cc3)c2)c1Br [N-(4-Bromo-3-methyl-5-isoxazolyl) 1-(4′-isopropylphenyl)pyrrole-3-sulfonamide],211 nM,838 nM,–
Cc1noc(NS(=O)(=O)c2cccn2-c2ccc(C(C)C)cc2)c1Br [N-(4-Bromo-3-methyl-5-isoxazolyl)-1-(4′-isopropylphenyl)pyrrole-2-sulfonamide],166 nM,11400 nM,–
Cc1noc(NS(=O)(=O)c2cccn2-c2ccccc2)c1Br [N-(4-Bromo-3-methyl-5-isoxazolyl)-1-(phenyl)pyrrole-2-sulfonamide],8700 nM,18100 nM,–
"Cc1noc(NS(=O)(=O)c2cc(Cl)sc2Cl)c1Br [N-(4-Bromo-3-methyl-5-isoxazolyl)-2,5-dichlorothiophene-3-sulfonamide]",2620 nM,~390 nM,–
"Cc1cc(S(=O)(=O)Nc2onc(C)c2Br)c(C)s1 [N-(4-Bromo-3-methyl-5-isoxazolyl)-2,5-dimethylthiophene-3-sulfonamide]",7800 nM,95.6 nM,–
Cc1noc(NS(=O)(=O)c2ccsc2C(=O)NCc2ccccc2)c1Br [N-(4-Bromo-3-methyl-5-isoxazolyl)-2-(N-benzylaminocarbonyl)thiophene-3-sulfonamide],12700 nM,13 nM,–
Cc1noc(NS(=O)(=O)c2ccsc2C(=O)O)c1Br [N-(4-Bromo-3-methyl-5-isoxazolyl)-2-(carboxyl)thiophene-3-sulfonamide],~67000 nM,~600 nM,–
COc1ccccc1NC(=O)c1sccc1S(=O)(=O)Nc1onc(C)c1Br [N-(4-Bromo-3-methyl-5-isoxazolyl)-2-[N-(2-methoxyphenyl)aminocarbonyl]thiophene-3-sulfonamide],13200 nM,11.6 nM,–

# The next lines start with results.
IC50 (human ETB receptor; [2]),"IC50 (human ETA receptors; Table 1, incubation at 4° C.)",Compound,also measured
5860 nM,3 nM,COc1cccc(NC(=O)c2sccc2S(=O)(=O)Nc2onc(C)c2Br)c1 [N-(4-Bromo-3-methyl-5-isoxazolyl)-2-[N-(3-methoxyphenyl)aminocarbonyl]thiophene-3-sulfonamide],–
912 nM,37.6 nM,Cc1noc(NS(=O)(=O)c2ccsc2C(=O)Nc2ccc(-c3ccccc3)cc2)c1Br [N-(4-Bromo-3-methyl-5-isoxazolyl)-2-[N-(4-biphenyl)aminocarbonyl]thiophene-3-sulfonamide],–
849 nM,1.6 nM,CCc1ccc(NC(=O)c2sccc2S(=O)(=O)Nc2onc(C)c2Br)cc1 [N-(4-Bromo-3-methyl-5-isoxazolyl)-2-[N-(4-ethylphenyl)aminocarbonyl]thiophene-3-sulfonamide],–
2120 nM,2 nM,COc1ccc(NC(=O)c2sccc2S(=O)(=O)Nc2onc(C)c2Br)cc1 [N-(4-Bromo-3-methyl-5-isoxazolyl)-2-[N-(4-methoxyphenyl)aminocarbonyl]thiophene-3-sulfonamide],–
2580 nM,281 nM,"Cc1noc(NS(=O)(=O)c2cc(Br)c(Br)s2)c1Br [N-(4-Bromo-3-methyl-5-isoxazolyl)-4,5-dibromothiophene-2-sulfonamide]",–
~4900 nM,~450 nM,"Cc1noc(NS(=O)(=O)c2cc(Cl)c(Cl)s2)c1Br [N-(4-Bromo-3-methyl-5-isoxazolyl)-4,5-dichlorothiophene-2-sulfonamide]",–
10400 nM,~280 nM,"Cc1noc(NS(=O)(=O)c2c(Cl)sc(Cl)c2Br)c1Br [N-(4-Bromo-3-methyl-5-isoxazolyl)-4-bromo-2,5-dichlorothiophene-3-sulfonamide]",–
2700 nM,3840 nM,Cc1noc(NS(=O)(=O)c2ccc(-c3ccccn3)s2)c1Br [N-(4-Bromo-3-methyl-5-isoxazolyl)-5-(2-pyridyl)thiophene-2-sulfonamide],–
2570 nM,311 nM,Cc1noc(NS(=O)(=O)c2ccc(CNC(=O)c3ccc(Cl)cc3)s2)c1Br [N-(4-Bromo-3-methyl-5-isoxazolyl)-5-(4-chlorobenzamidomethyl)thiophene-2-sulfonamide],–
333 nM,570 nM,Cc1noc(NS(=O)(=O)c2ccc(S(=O)(=O)c3ccccc3)s2)c1Br [N-(4-Bromo-3-methyl-5-isoxazolyl)-5-benzenesulfonylthiophene-2-sulfonamide],–
